Our source for the IC50 values is patent US12595252B2, “Inhibitors of SARM1” (DISARM THERAPEUTICS, INC., priority 2019, dated 2026).

One experiment deals with T1, SARM1 (Homo sapiens, UniProt Q6SZW1).
T1 construct: made in house; host or cells: NRK1-HEK293T cells, transiently transfected; clarified lysate used unpurified
T1 sequence (Q6SZW1 with tags, fused parts or gaps): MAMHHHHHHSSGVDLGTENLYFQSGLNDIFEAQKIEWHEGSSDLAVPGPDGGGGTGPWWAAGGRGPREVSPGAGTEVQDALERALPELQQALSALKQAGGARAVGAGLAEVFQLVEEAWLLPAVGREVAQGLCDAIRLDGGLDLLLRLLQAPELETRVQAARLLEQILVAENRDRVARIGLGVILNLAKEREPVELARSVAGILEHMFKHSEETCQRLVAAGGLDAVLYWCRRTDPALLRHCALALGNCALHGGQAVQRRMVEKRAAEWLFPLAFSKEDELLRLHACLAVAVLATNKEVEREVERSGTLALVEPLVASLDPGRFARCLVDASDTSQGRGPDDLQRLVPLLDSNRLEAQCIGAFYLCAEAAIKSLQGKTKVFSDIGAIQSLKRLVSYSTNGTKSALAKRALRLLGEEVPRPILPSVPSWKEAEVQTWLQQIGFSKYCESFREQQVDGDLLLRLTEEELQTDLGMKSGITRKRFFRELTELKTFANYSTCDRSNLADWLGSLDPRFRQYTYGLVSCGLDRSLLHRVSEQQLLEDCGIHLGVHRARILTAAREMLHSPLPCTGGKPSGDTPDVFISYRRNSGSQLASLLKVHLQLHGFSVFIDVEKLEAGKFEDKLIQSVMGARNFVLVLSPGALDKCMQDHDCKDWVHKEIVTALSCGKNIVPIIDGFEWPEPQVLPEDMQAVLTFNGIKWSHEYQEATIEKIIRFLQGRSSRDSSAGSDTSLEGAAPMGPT
Kind of experiment: ARM-SAM-TIR SARM1 IC50 assay (NADase activity, NAD+ cleavage). Type of experiment: biochemical.
Conditions: not given
Here is the method:
This Example describes an assay of ARM-SAM-TIR NADase activity and use of this assay to measure the efficacy of compounds of Formula I to block SARM1 mediated NAD+ cleavage. This assay is optimized in such a way as to characterize the efficacy of the compounds in Formula I to inhibit SARM1 activity and to calculate an IC50 value for each compound. This assay makes use of full length SARM1, which encompasses the ARM, SAM and TIR domains.
NRK1-HEK293T cells were seeded onto 150 cm^2 plates at 20×10^6 cells per plate. The next day, the cells were transfected with 15 μg ARM-SAM-TIR expression plasmid, SEQ ID NO: 1.
The cultures were supplemented with 1 mM NR at time of transfection to minimize toxicity from ARM-SAM-TIR overexpression. Forty-eight hours after transfection, cells were harvested, pelleted by centrifugation at 1,000 rpm (Sorvall ST 16R centrifuge, Thermo Fisher), and washed once with cold PBS (0.01 M phosphate buffered saline NaCl 0.138 M; KCl 0.0027 M; pH 7.4). The cells were resuspended in PBS with protease inhibitors (cOmplete™ protease inhibitor cocktail, Roche product #11873580001) and cell lysates were prepared by sonication (Branson Sonifer 450, output=3, 20 episodes of stroke). The lysates were centrifuged (12,000×g for 10 min at 4° C.) to remove cell debris and the supernatants (containing ARM-SAM-TIR protein) were stored at −80° C. for later use in the in vitro ARM-SAM-TIR NADase assay (see below). Protein concentration was determined by the Bicinchoninic (BCA) method and used to normalize lysate concentrations.
The enzymatic assay was performed in a 384-well polypropylene plate in Dulbecco's PBS buffer in a final assay volume of 20 μL. ARM-SAM-TIR lysate with a final concentration of 5 μg/mL was pre-incubated with the respective compound at 1% DMSO final assay concentration over 2 h at room temperature. The reaction was initiated by addition of 5 μM final assay concentration of NAD+ as substrate. After a 2 hr room temperature incubation, the reaction was terminated with 40 μL of stop solution of 7.5% trichloroacetic acid in acetonitrile. The NAD+ and ADPR concentrations were analyzed by a RapidFire High Throughput Mass Spectrometry System (Agilent Technologies, Santa Clara, Calif.) using an API4000 triple quadrupole mass spectrometer (AB Sciex Framingham, Mass.).
In general, IC50 refers to the concentration at which inhibition is half-maximal. As for `CCOc1cncc(NCc2ccc(C)nc2)n1` [Example 9], the IC50 was 5 to 15 µM.

On to `COc1cncc(NCc2cncnc2)n1` [Example 22], for which the IC50 is 5 to 15 µM.

On to `COc1cncc(NCc2ccc(Cl)nc2)n1` [Example 44], for which the IC50 was in the range of 5 to 15 µM.

In the case of `COc1cncc(NCc2ccc(N3CCNCC3)nc2)n1` [Example 81], the IC50 fell in the range of 5 to 15 µM.

Staying with this experiment, now noted: ARM-SAM-TIR lysate 5 μg/mL from NRK1-HEK293T cells; 2 h pre-incubation; 5 μM NAD+; 2 hr room temperature; NAD+ and ADPR by RapidFire MS; read-out: SARM1 IC50.
In the case of `CN(C)Cc1ccc(N2CCN(c3cncc(OCC4CCCC4)n3)CC2)nc1` [Example 2], the IC50 was greater than 30 µM.

With `CCOc1cncc(NCc2ccc(N3CCN(CC)CC3)nc2)n1` [Example 3], the IC50 was 5 to 15 µM.

For the compound `CCOc1cncc(NCc2ccc(N3CCN(CC)CC3)cc2)n1` [Example 7], the IC50 lay within 5 to 15 µM.

On to `CCN1CCN(c2ccc(CNc3cncc(OC)n3)cn2)CC1` [Example 8], for which the IC50 lay within 5 to 15 µM.

On to `CCOc1cncc(NCc2ccccc2)n1` [Example 10], for which the IC50 was 15 to 30 µM.

On to `COc1cncc(NCc2cccnc2)n1` [Example 12], for which the IC50 fell in the range of 5 to 15 µM.

As to `CC(C)Oc1cncc(NCc2cccnc2)n1` [Example 13], the IC50 was greater than 30 µM.

On to `Oc1cncc(NCc2cccnc2)c1` [Example 14], for which the IC50 is 5 to 15 µM.

Take `CCCCCOc1cncc(NCc2cccnc2)n1` [Example 15]: the half-maximal inhibitory concentration (IC50) is greater than 30 µM.

`CN(C)c1cncc(NCc2cccnc2)n1` [Example 16]: the IC50 lay in the range of 15 to 30 µM.

Regarding `COc1cncc(NS(=O)(=O)c2cccnc2)n1` [Example 17], the IC50 is greater than 30 µM.

As for `COc1cncc(NCc2cn[nH]c2)n1` [Example 20], the IC50 is 5 to 15 µM.

Take `COc1cncc(NCc2cnn(C)c2)n1` [Example 21]: the IC50 is 15 to 30 µM.

`COc1cncc(NC(=O)c2ccc3ccccc3n2)n1` [Example 23]: the IC50 was 5 to 15 µM.

With `COc1cncc(C(=O)NCc2cccnc2)n1` [Example 24], the IC50 is greater than 30 µM.

As for `CCNc1cncc(NCc2cccnc2)n1` [Example 25], the IC50 lay within 15 to 30 µM.

Take `COc1cncc(NCc2cnc3ccccc3c2)n1` [Example 26]: the IC50 fell in the range of 5 to 15 µM.

With `COc1cncc(NCc2cncc3ccccc23)n1` [Example 27], the half-maximal inhibitory concentration (IC50) was 5 to 15 µM.

With `c1cncc(CNc2cncc(-n3cccn3)n2)c1` [Example 28], the IC50 was in the range of 5 to 15 µM.

Turning to `CCN(C)c1cncc(NCc2cccnc2)n1` [Example 30], the IC50 is greater than 30 µM.

With `COc1cncc(NC(C)c2cccnc2)n1` (centres unmarked) [Example 31], the IC50 was 15 to 30 µM.

Consider `COc1cncc(NC(C)c2ccccc2)n1` (centres unmarked) [Example 32], for which the IC50 fell in the range of 15 to 30 µM.

On to `COc1cncc(NCCCc2ccccc2)n1` [Example 33], for which the IC50 fell in the range of 5 to 15 µM.

On to `COc1cncc(NCc2cccnc2)c1C` [Example 34], for which the IC50 was greater than 30 µM.

On to `COc1nc(NCc2cccnc2)cnc1C` [Example 35], for which the IC50 fell in the range of 5 to 15 µM.

In the case of `COc1cccc(CNc2cncc(OC)n2)c1` [Example 37], the IC50 lay within 5 to 15 µM.

Turning to `COc1ccc(CNc2cncc(OC)n2)cc1` [Example 38], the IC50 is 5 to 15 µM.

As to `COc1cncc(NCc2cccc(F)c2)n1` [Example 39], the IC50 lay within 5 to 15 µM.

Turning to `COc1cncc(NCC2CCOCC2)n1` [Example 41], the concentration for half-maximal inhibition (IC50) is greater than 30 µM.

On to `COc1cncc(NCc2ccn(C)c2)n1` [Example 42], for which the IC50 fell in the range of 5 to 15 µM.

For the compound `COc1ncc(NCc2cccnc2)nc1OC` [Example 43], the concentration for half-maximal inhibition (IC50) lay within 15 to 30 µM.

With `COc1cncc(NCC(O)c2cccc(C(F)(F)F)c2)n1` (centres unmarked) [Example 45], the IC50 was in the range of 5 to 15 µM.

For the compound `COc1cncc(NC(=O)c2ccc3ccc(Cl)cc3n2)n1` [Example 46], the IC50 was greater than 30 µM.

Consider `COc1cncc(NCc2ccc(NC(C)=O)cc2)n1` [Example 47], for which the IC50 was less than 5 µM.

As for `COc1cncc(NCc2cnc3c(c2)ncn3C)n1` [Example 48], the IC50 was 15 to 30 µM.

On to `COc1cncc(NCC2CCOC2)n1` (centres unmarked) [Example 50], for which the half-inhibitory concentration (IC50) fell in the range of 15 to 30 µM.

As for `COc1cncc(NCc2nccn2C)n1` [Example 51], the half-inhibitory concentration (IC50) is greater than 30 µM.

For the compound `COc1cncc(NCc2ccn(C)n2)n1` [Example 54], the IC50 was in the range of 5 to 15 µM.

Take `COc1cncc(NCc2cn(C)cn2)n1` [Example 55]: the IC50 was in the range of 15 to 30 µM.

With `COc1cncc(NCc2cc(C)no2)n1` [Example 56], the half-inhibitory concentration (IC50) was in the range of 5 to 15 µM.

For the compound `COc1cncc(NCc2ccoc2)n1` [Example 58], the IC50 fell in the range of 5 to 15 µM.

Regarding `COc1cncc(NCc2cccn2C)n1` [Example 59], the IC50 lay within 15 to 30 µM.

With `COc1cncc(NCc2cnc[nH]2)n1` [Example 61], the IC50 is less than 5 µM.

For `COc1cncc(NCc2ccc(S(N)(=O)=O)cc2)n1` [Example 63], the IC50 was less than 5 µM.

For `COc1cncc(NCc2ccc(C(N)=O)cc2)n1` [Example 64], the IC50 lay in the range of 5 to 15 µM.

With `COc1cncc(NCc2cccc(C(N)=O)c2)n1` [Example 65], the IC50 was in the range of 5 to 15 µM.

`COc1cncc(NCc2cc[nH]c(=O)c2)n1` [Example 66]: the IC50 lay within 5 to 15 µM.

As to `COC(=O)c1ccc(CNc2cncc(OC)n2)cc1` [Example 67], the IC50 was 5 to 15 µM.

Take `COc1cncc(NCc2cnco2)n1` [Example 68]: the IC50 was in the range of 5 to 15 µM.

For the compound `COc1cncc(NCc2cnc(C)s2)n1` [Example 70], the IC50 was in the range of 5 to 15 µM.

For the compound `Brc1cncc(CCc2ccccc2)n1` [Example 72], the 50% inhibitory concentration (IC50) was greater than 30 µM.

As to `COc1cncc(NCc2cnn(-c3ccccc3)c2)n1` [Example 73], the half-inhibitory concentration (IC50) lay in the range of 5 to 15 µM.

For the compound `Cn1cc(CNc2cncc(C#N)n2)cn1` [Example 75], the half-maximal inhibitory concentration (IC50) is greater than 30 µM.

As for `COc1cncc(NCc2ccc(C(=O)O)cc2)n1` [Example 76], the IC50 was greater than 30 µM.

For the compound `COc1cncc(NCc2ccc(N3CCOCC3)nc2)n1` [Example 77], the concentration for half-maximal inhibition (IC50) lay within 5 to 15 µM.

With `COc1cncc(NCc2ccc(N3CCC(O)CC3)nc2)n1` [Example 80], the IC50 lay within 5 to 15 µM.

`COc1cncc(NCc2ccc(N3CCCCC3)nc2)n1` [Example 84]: the IC50 is 5 to 15 µM.

As for `COc1cncc(NCc2ccccc2F)n1` [Example 85], the IC50 was 5 to 15 µM.

For `COc1cncc(NCc2ccc(F)cc2)n1` [Example 86], the IC50 is 5 to 15 µM.

On to `COc1cncc(NCc2cnn3cccnc23)n1` [Example 89], for which the IC50 was in the range of 15 to 30 µM.

Consider `COc1cncc(NCc2cnn3ccccc23)n1` [Example 90], for which the IC50 fell in the range of 15 to 30 µM.

For the compound `COc1cncc(NCc2ccc(C(F)(F)F)nc2)n1` [Example 91], the half-maximal inhibitory concentration (IC50) is 15 to 30 µM.

Regarding `COc1cncc(NCc2cnn(C(C)C)c2)n1` [Example 92], the IC50 was 5 to 15 µM.

`COCCn1cc(CNc2cncc(OC)n2)cn1` [Example 93]: the IC50 lay within 5 to 15 µM.

Regarding `COc1cnnc(NCc2cccnc2)c1` [Example 94], the IC50 was 15 to 30 µM.

Regarding `COc1cc(NCc2cccnc2)cnn1` [Example 95], the 50% inhibitory concentration (IC50) is greater than 30 µM.

On to `COc1cncc(NCc2ccc(Br)c(C)c2)n1` [Example 100], for which the IC50 was 5 to 15 µM.

Turning to `COc1cncc(NCc2ccc(Br)cc2)n1` [Example 101], the IC50 is less than 5 µM.

Turning to `COc1cncc(NCc2cnn(CCN(C)C)c2)n1` [Example 104], the IC50 was in the range of 5 to 15 µM.

`COc1cncc(NCc2cnn(C3CCNCC3)c2)n1` [Example 105]: the concentration for half-maximal inhibition (IC50) was less than 5 µM.
